Assays:
[1] = test system: OTC2 (DNA, aptamer) GACGACGCAATGTCCTTCGCAGGATCCGTTTACGGTGTCGTC; assay: ITC; conditions: 50 mM NaCl, 2 mM MgCl2; 10 mM MES pH 6.0, 25 °C; 9 μM aptamer, 150 μM OTC
[2] = test system: OTC22 (DNA, aptamer) GACGACAAAGCGTCTTACGTGCATACTTTTGTTGTCGTC; assay: ITC; conditions: 50 mM NaCl, 2 mM MgCl2; 10 mM MES pH 6.0, 25 °C; 9 μM aptamer, 150 μM OTC
[3] = test system: OTC43 (DNA, aptamer) GACGACTGGACCCTTCTGTGGTAGATTCTATCTAATGTCGTC; assay: ITC; conditions: 50 mM NaCl, 2 mM MgCl2; 10 mM MES pH 6.0, 25 °C; 9 μM aptamer, 150 μM OTC
[4] = test system: OTC2 (DNA, aptamer) GACGACGCAATGTCCTTCGCAGGATCCGTTTACGGTGTCGTC; assay: intrinsic fluorescence titration of OTC; conditions: 50 mM NaCl, 2 mM MgCl2; 10 mM MES pH 6.0; 100 nM OTC; 12 min equilibration per addition (0.57 μM after 1 min)
[5] = test system: OTC22 (DNA, aptamer) GACGACAAAGCGTCTTACGTGCATACTTTTGTTGTCGTC; assay: intrinsic fluorescence titration of OTC; conditions: 50 mM NaCl, 2 mM MgCl2; 10 mM MES pH 6.0; 100 nM OTC; 1 min equilibration
[6] = test system: OTC43 (DNA, aptamer) GACGACTGGACCCTTCTGTGGTAGATTCTATCTAATGTCGTC; assay: intrinsic fluorescence titration of OTC; conditions: 50 mM NaCl, 2 mM MgCl2; 10 mM MES pH 6.0; 100 nM OTC; 1 min equilibration
[7] = test system: OTC8 (DNA, aptamer) GACGACGGGCAAGATCTATTCTTCACGTTCACCTTTGTCGTC; assay: intrinsic fluorescence titration of OTC; conditions: 50 mM NaCl, 2 mM MgCl2; 10 mM MES pH 6.0; 100 nM OTC; 1 min equilibration
[8] = test system: OTC11 (DNA, aptamer) GACGACGCAGACATCTTGTGTGTCATAGCGCGCTACGTCGTC; assay: intrinsic fluorescence titration of OTC; conditions: 50 mM NaCl, 2 mM MgCl2; 10 mM MES pH 6.0; 100 nM OTC; 1 min equilibration
[9] = test system: OTC23 (DNA, aptamer) GACGACGTGCTATTGCCTCAGTCATTCTCTGAGTCGTCGTC; assay: intrinsic fluorescence titration of OTC; conditions: 50 mM NaCl, 2 mM MgCl2; 10 mM MES pH 6.0; 100 nM OTC; 1 min equilibration
[10] = test system: OTC26 (DNA, aptamer) GACGACATAGCTTGCTACCACTCGTCTCCGTAGTGGCAGTCGTC; assay: intrinsic fluorescence titration of OTC; conditions: 50 mM NaCl, 2 mM MgCl2; 10 mM MES pH 6.0; 100 nM OTC; 1 min equilibration
[11] = test system: OTC34 (DNA, aptamer) GACGACGCAGTCTGATTTCAGCCATAGTTTTACTGCGTCGTC; assay: intrinsic fluorescence titration of OTC; conditions: 50 mM NaCl, 2 mM MgCl2; 10 mM MES pH 6.0; 100 nM OTC; 1 min equilibration

Work on `CN(C)[C@@H]1C(=O)C(C(N)=O)=C(O)[C@@]2(O)C(=O)C3=C(O)c4c(O)cccc4[C@@](C)(O)[C@H]3[C@H](O)[C@@H]12` yielded a Kd [1] of 62 ± 20 nM, a Kd [2] of 490 ± 110 nM and a Kd [3] of 1600 ± 570 nM. It also gave a Kd [4] of 81 nM, a Kd [5] of 290 nM and a Kd [6] of 690 nM. For the same compound, the Kd [7] was 200 nM, the Kd [8] was 320 nM and the Kd [9] was 360 nM. For the same compound, the Kd [10] was 590 nM and the Kd [11] was 530 nM.

Reference: article PMC11230938 (2024)
